ChEMBL document CHEMBL3233009, “Pyrazoles as non-classical bioisosteres in prolylcarboxypeptidase (PrCP) inhibitors” (Bioorg Med Chem Lett, 2014)

How the values were obtained:
[1] = target: T1, Lysosomal Pro-X carboxypeptidase (Mus musculus, UniProt Q7TMR0); assay: Inhibition of recombinant mouse PrCP using Mca-Ala-Pro-Lys(Dnp)-OH as substrate after 30 mins by continuous fluorometric assay
T1 sequence (Q7TMR0 whole entry): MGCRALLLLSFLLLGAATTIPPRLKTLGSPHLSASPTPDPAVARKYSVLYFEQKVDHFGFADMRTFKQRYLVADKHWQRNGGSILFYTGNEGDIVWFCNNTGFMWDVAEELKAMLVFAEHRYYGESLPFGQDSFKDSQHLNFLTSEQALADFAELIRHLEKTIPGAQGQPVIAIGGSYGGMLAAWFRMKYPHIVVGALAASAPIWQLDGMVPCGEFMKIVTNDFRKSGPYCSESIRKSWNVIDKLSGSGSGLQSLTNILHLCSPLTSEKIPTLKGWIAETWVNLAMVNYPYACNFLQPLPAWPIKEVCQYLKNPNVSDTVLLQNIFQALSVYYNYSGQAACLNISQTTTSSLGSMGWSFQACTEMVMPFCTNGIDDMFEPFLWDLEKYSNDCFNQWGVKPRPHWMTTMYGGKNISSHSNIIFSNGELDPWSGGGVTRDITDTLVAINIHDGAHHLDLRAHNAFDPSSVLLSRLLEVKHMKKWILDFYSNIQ

[2] = Clearance in C57Bl/6 mouse at 1 mg/kg, iv and 2 mg/kg, po; format: ADME, organism-based; settings: in vivo
Mus musculus [3] = assay: Dose normalized AUC in C57Bl/6 mouse at 2 mg/kg, po; format: ADME, organism-based; design: dose 2 mg/kg, route oral; settings: in vivo
[4] = Fraction unbound in mouse 100% plasma; format: ADME, cell-free
[5] = Volume of distribution in C57Bl/6 mouse at 1 mg/kg, iv and 2 mg/kg, po; format: ADME, organism-based; settings: in vivo
[6] = Fraction unbound in human 100% plasma; format: ADME, cell-free
[7] = Half life in C57Bl/6 mouse at 1 mg/kg, iv and 2 mg/kg, po; format: ADME, organism-based; settings: in vivo
[8] = Oral bioavailability in C57Bl/6 mouse at 2 mg/kg; format: ADME, organism-based; settings: in vivo
Mus musculus [9] = assay: Dose normalized AUC in C57Bl/6 mouse at 10 mg/kg, po; format: ADME, organism-based; design: dose 10 mg/kg, route oral; settings: in vivo
[10] = Half life in C57Bl/6 mouse at 2 mg/kg, iv and 10 mg/kg, po; format: ADME, organism-based; settings: in vivo
[11] = Clearance in C57Bl/6 mouse at 2 mg/kg, iv and 10 mg/kg, po; format: ADME, organism-based; settings: in vivo
[12] = Oral bioavailability in C57Bl/6 mouse at 10 mg/kg; format: ADME, organism-based; settings: in vivo
[13] = Volume of distribution in C57Bl/6 mouse at 2 mg/kg, iv and 10 mg/kg, po; format: ADME, organism-based; settings: in vivo

| Structure (SMILES) | IC50 [1] | fraction unbound [4] | fraction unbound [6] | other results |
| --- | --- | --- | --- | --- |
| Clc1ccc(-c2cc([C@@H]3CC[C@@H](N4CCOCC4)C[C@H]3c3ccc(Br)cc3)[nH]n2)cc1 | 220 nM |  |  |  |
| O=C([C@@H]1CC[C@@H](NCc2ccc(Cl)cc2)C[C@H]1c1ccc(F)cc1)N1CC(c2ccccc2)(c2ccccc2)C1 | 4.7 nM |  |  |  |
| Fc1ccc([C@@H]2CN(CCc3ccccc3)CC[C@H]2c2cc(-c3ccc(Cl)cc3)n[nH]2)cc1.O=C(O)C(F)(F)F | 2.2 nM | < 0.01 | 0.03 | clearance [2]: 28.9 mL/min/kg; AUC/dose (Mus musculus [3]): 0.413 µM·kg·h/mg; Vd [5]: 13.3 L/kg; half-life [7]: 288 min; bioavailability [8]: 33% |
| Fc1ccc([C@H]2CN(CCc3ccccc3)CC[C@H]2c2cc(-c3ccc(Cl)cc3)n[nH]2)cc1 | 24 nM |  |  |  |
| OC(CN1CC[C@@H](c2cc(-c3ccc(Cl)cc3)n[nH]2)[C@H](c2ccc(F)cc2)C1)c1ccccc1 (some centres undefined) | 5.9 nM |  |  |  |
| O=C(CN1CC[C@@H](c2cc(-c3ccc(Cl)cc3)n[nH]2)[C@H](c2ccc(F)cc2)C1)c1ccccc1 | 30 nM |  |  |  |
| Clc1ccc(-c2cc(C3(c4ccccc4)CCN(CCc4ccccc4)CC3)[nH]n2)cc1 |  | < 0.01 | 0.03 |  |
| Fc1ccc(-c2cc(C3(c4ccccc4)CCN(CCc4ccccc4)CC3)[nH]n2)cc1 | 23 nM | < 0.01 | 0.07 |  |
| Cn1nc(-c2ccc(F)cc2)cc1C1(c2ccccc2)CCN(CCc2ccccc2)CC1 | 3.6 nM | < 0.01 | < 0.01 |  |
| Cn1nc(-c2ccc(F)cc2)cc1C1(c2ccccn2)CCN(CCc2ccccc2)CC1 |  | 0.04 | 0.01 |  |
| Cc1ccccc1[C@@H]1C[C@H](N2CCOCC2)CC[C@H]1C(=O)N1CC(c2ccccc2)(c2ccccc2)C1.O=C(O)C(F)(F)F |  | 0.04 | 0.02 | AUC/dose (Mus musculus [9]): 0.037 µM·kg·h/mg; half-life [10]: 102 min; clearance [11]: 72.2 mL/min/kg; bioavailability [12]: 7.8%; Vd [13]: 10.8 L/kg |
| Fc1ccc([C@@H]2CN(CCc3ccc(Cl)cc3)CC[C@H]2c2cc(-c3ccc(Cl)cc3)n[nH]2)cc1 (racemic) | 20 nM |  |  |  |
| Fc1ccc([C@@H]2CN(Cc3ccc(Cl)cc3)CC[C@H]2c2cc(-c3ccc(Cl)cc3)n[nH]2)cc1 (racemic) |  | < 0.01 | < 0.01 |  |
| Fc1ccc([C@@H]2CN(CCC(F)(F)F)CC[C@H]2c2cc(-c3ccc(Cl)cc3)n[nH]2)cc1 (racemic) | 56 nM |  |  |  |
